The IC50 is the midpoint of a concentration-inhibition curve. A high value points to a need for much substance.

Consider three compounds from ChEMBL document CHEMBL3352061, “Novel amino-β-lactam derivatives as potent cholesterol absorption inhibitors” (Eur J Med Chem, 2014).

A short description of data set [1]: Inhibition of cholesterol uptake in MDCK2 cells expressing human NPC1L1 after 1 hr by liquid scintillation counting. Type of data set: cell-based. The settings on record: Canis lupus familiaris, MDCK-II.
A short description of data set [2]: Inhibition of cholesterol uptake in MDCK2 cells at 20 to 100 uM after 1 hr by liquid scintillation counting. It counts as cell-based, Canis lupus familiaris. Conditions: dog, mdck-ii; call rule not given here.
Data set [3] can be described thus: Inhibition of cholesterol uptake in MDCK2 cells expressing human NPC1L1 at 20 to 100 uM after 1 hr by liquid scintillation counting. Type of data set: cell-based, Canis lupus familiaris. Conditions: dog, mdck-ii.

As for `O=C1[C@H](NC[C@H](O)c2ccc(F)cc2)[C@@H](c2ccc(O)cc2)N1c1ccc(F)cc1`, in data set [1], it took 80 µM to reach half-maximal inhibition (IC50).

Regarding `O=C1[C@H](NC[C@@H](O)c2ccc(F)cc2)[C@@H](c2ccc(O)cc2)N1c1ccc(F)cc1`, the IC50 in data set [1] came to 60 µM.

Regarding `O=C1[C@H](CC[C@H](O)c2ccc(F)cc2)[C@@H](c2ccc(O)cc2)N1c1ccc(F)cc1` [EZETIMIBE], the “inhibition (INH)” value in data set [2] was “Not Active”; in data set [3], “Active”.
